Paper PMC2918681 (Biochemical and biophysical research communications, 2010)

Columns and labels:
[1] = molecular target: T1, acyl-coenzyme A:cholesterol acyltransferase 1 (ACAT1) (Homo sapiens, UniProt P35610); test: [3H]oleate incorporation into cholesteryl oleate in CHO-ACAT1 cells; type: cell-based
T1 sequence (P35610 1-550): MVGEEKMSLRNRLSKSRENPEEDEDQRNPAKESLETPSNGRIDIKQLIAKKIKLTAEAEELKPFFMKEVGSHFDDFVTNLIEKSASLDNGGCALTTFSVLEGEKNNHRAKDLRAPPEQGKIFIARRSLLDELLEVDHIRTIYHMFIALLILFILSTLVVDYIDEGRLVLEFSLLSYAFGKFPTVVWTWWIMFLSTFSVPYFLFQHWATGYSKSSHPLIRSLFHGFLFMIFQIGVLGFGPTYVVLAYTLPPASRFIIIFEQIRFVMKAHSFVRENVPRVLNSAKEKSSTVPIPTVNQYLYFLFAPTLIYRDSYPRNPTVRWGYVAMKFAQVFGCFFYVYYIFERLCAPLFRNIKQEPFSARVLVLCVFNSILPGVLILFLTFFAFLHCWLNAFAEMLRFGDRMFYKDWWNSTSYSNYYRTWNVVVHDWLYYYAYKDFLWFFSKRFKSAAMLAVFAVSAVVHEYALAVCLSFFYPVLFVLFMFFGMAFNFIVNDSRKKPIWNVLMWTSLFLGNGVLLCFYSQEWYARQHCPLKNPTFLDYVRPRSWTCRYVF

[2] = molecular target: T2, acyl-coenzyme A:cholesterol acyltransferase 2 (ACAT2) (Homo sapiens, UniProt O75908); test: [3H]oleate incorporation into cholesteryl oleate in CHO-ACAT2 cells; type: cell-based
T2 sequence (O75908 1-522): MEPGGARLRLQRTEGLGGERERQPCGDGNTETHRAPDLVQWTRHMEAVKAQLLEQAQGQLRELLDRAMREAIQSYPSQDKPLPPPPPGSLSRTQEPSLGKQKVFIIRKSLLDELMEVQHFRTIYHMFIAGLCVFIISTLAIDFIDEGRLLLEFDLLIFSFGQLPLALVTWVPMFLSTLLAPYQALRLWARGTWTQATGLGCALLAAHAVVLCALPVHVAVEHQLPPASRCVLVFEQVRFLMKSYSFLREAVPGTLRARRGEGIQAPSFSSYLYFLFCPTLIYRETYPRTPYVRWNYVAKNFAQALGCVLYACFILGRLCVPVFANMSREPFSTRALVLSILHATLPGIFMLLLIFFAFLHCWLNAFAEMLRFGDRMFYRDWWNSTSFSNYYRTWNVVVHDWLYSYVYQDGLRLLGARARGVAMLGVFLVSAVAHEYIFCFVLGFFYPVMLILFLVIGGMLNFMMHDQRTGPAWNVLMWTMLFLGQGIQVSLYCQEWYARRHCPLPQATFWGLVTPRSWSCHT

Compound: Cc1c(C(=O)NN2CCCCC2)nn(-c2ccc(Cl)cc2Cl)c1-c1ccc(Cl)cc1 [Rimonabant]
- IC50 [1]: 1500 ± 1200 nM
- IC50 [2]: 2200 ± 1100 nM
